Structures are written as SMILES.

As a reminder, the IC50 is the concentration that inhibits the measured activity by half. Low readings indicate inhibition by little substance, high ones a need for much substance.

The target of this assay is T1, EBP (Homo sapiens, UniProt Q15125).
T1 construct: HEK293T cells were utilized as the source of EBP enzyme; endogenous in cells; host or cells: HEK293T
T1 sequence (Q15125 whole entry): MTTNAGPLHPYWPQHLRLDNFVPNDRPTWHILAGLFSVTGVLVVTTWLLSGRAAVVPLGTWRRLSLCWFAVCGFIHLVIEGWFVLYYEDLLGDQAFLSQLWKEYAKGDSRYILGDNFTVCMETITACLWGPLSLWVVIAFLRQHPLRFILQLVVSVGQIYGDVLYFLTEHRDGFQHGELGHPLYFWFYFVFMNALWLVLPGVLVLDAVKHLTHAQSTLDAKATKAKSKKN
Briefly: EBP Functional Assay (EBP immunoaffinity LC-MS assay). Conditions: EBP enzyme from HEK293T cells; 30 min with inhibitor, then zymosterol-d5, 37° C., 4 h; percent conversion to dehydrolathosterol-d5 by LC-APCI MRM MS. Type of assay: biochemical. How it is done: The EBP immunoaffinity (IA) LC-MS assay measures the potency of small molecule inhibitors of EBP by quantifying their concentration-dependent changes in the enzyme's substrate and product using liquid chromatography atmospheric pressure chemical ionization multiple reaction monitoring mass spectrometry (LC-APCI MRM MS). HEK293T cells were utilized as the source of EBP enzyme. The enzyme was incubated with the small molecule inhibitors at variable concentrations for 30 min. Deuterated form of EBP substrate, zymosterol-d5 (Avanti Polar Lipids, Cat #700068P-1 mg), was then added and the plate was incubated at 37° C. for 4 h. Finally, the sterol isomers were extracted and injected to LC-APCI MRM MS. MRM transition used for the quantification for both zymosterol and […] (substrate and product of EBP enzymatic reaction, respectively) is 372.3-203.2, CE 30 and DP 80 in positive ion mode. Percent conversion of the zymosterol-d5 to dehydrolathosterol-d5 was used to derive IC50 curves. Tasin-1 (1′-[(4-Methoxyphenyl)sulfonyl]-4-methyl-1,4′-bipiperidine, CAS 792927-06-1) was used as the reference small molecule inhibitor.
Percent conversion versus the compound concentration data were fit to the following 4-parameter logistic model to generate IC50 curves: […]
Take `CCc1cc(C(F)(F)F)ncc1S(=O)(=O)N1CC2(CN(C3CCC(C)(O)CC3)C2)C1` (single isomer, unassigned) [Example 128, 4-(6-((4-ethyl-6-(trifluoromethyl)pyridin-3-yl)sulfonyl)-2,6-diazaspiro[3.3]heptan-2-yl)-1-methylcyclohexan-1-ol]: the IC50 is < 100 nM.
Then `Cc1nc(C(F)(F)F)ccc1S(=O)(=O)N1CC2(CN(C(C)C3CCOCC3)C2)C1` (single isomer, unassigned) [Example 156], with < 100 nM; and `Cc1nc(C(F)(F)F)ccc1S(=O)(=O)N1CC2(CN(C(C)C3COC3)C2)C1` (single isomer, unassigned) [Example 158], with 250 to 4000 nM.
The result for `Cc1nc(C(F)(F)F)ccc1S(=O)(=O)N1CC2(CN(C(C)C3COC3)C2)C1` (single isomer, unassigned) [Example 159] reads < 100 nM; that for `Cc1nc(C(F)(F)F)ccc1S(=O)(=O)N1CC2(CN(CC3CCOC3)C2)C1` (single isomer, unassigned) [Example 160], 100 to 250 nM.
Turning to `Cc1nc(C(F)(F)F)ccc1S(=O)(=O)N1CC2(CN(CC3CCOC3)C2)C1` (single isomer, unassigned) [Example 161], the IC50 fell in the range of 250 to 4000 nM.
Compound `Cn1nc(C(F)(F)F)cc1S(=O)(=O)N1CC2(CN(CC3CCOC(C)(C)C3)C2)C1` (single isomer, unassigned) [Example 199] came in with an IC50 of 100 to 250 nM.
Then `Cn1nc(C(F)(F)F)cc1S(=O)(=O)N1CC2(CN(CC3CCOC(C)(C)C3)C2)C1` (single isomer, unassigned) [Example 200], with 100 to 250 nM; and `O=S(=O)(c1ccc(OC(F)F)cc1)N1CCOC2(CN(C3CCOCC3)C2)C1` [Example 1, 8-((4-(Difluoromethoxy)phenyl)sulfonyl)-2-(tetrahydro-2H-pyran-4-yl)-5-oxa-2,8-diazaspiro[3.5]nonane], with 250 to 4000 nM.
The result for `O=S(=O)(c1ccc(OC(F)F)cc1)N1CCOC2(CCN(C3CCOCC3)CC2)C1` [Example 5, 4-((4-(Difluoromethoxy)phenyl)sulfonyl)-9-(tetrahydro-2H-pyran-4-yl)-1-oxa-4,9-diazaspiro[5.5]undecane] reads 100 to 250 nM.
Consider `COCCN1CCC2(CC1)CN(S(=O)(=O)c1ccc(OC(F)F)cc1)CCO2` [Example 7, 4-((4-(Difluoromethoxy)phenyl)sulfonyl)-9-(2-methoxyethyl)-1-oxa-4,9-diazaspiro[5.5]undecane], for which the IC50 is 250 to 4000 nM.
In turn, `CC(C)(O)CN1CCC2(CC1)CN(S(=O)(=O)c1ccc(OC(F)F)cc1)CCO2` [Example 10, 1-(4-((4-(Difluoromethoxy)phenyl)sulfonyl)-1-oxa-4,9-diazaspiro[5.5]undecan-9-yl)-2-methylpropan-2-ol] gave an IC50 of 250 to 4000 nM.
The result for `COC(C)(C)CN1CCC2(CC1)CN(S(=O)(=O)c1ccc(OC(F)F)cc1)CCO2` [Example 11, 4-((4-(Difluoromethoxy)phenyl)sulfonyl)-9-(2-methoxy-2-methylpropyl)-1-oxa-4,9-diazaspiro[5.5]undecane] reads 100 to 250 nM; that for `O=S(=O)(c1ccc(F)cc1F)N1CCOC2(CCN(C3CCOCC3)C2)C1` (stereo not drawn) [Example 12, 9-((2,4-Difluorophenyl)sulfonyl)-2-(tetrahydro-2H-pyran-4-yl)-6-oxa-2,9-diazaspiro[4.5]decane], 250 to 4000 nM; that for `O=S(=O)(c1cc(F)cc(F)c1)N1CCOC2(CCN(C3CCOCC3)C2)C1` (stereo not drawn) [Example 13, 9-((3,5-Difluorophenyl)sulfonyl)-2-(tetrahydro-2H-pyran-4-yl)-6-oxa-2,9-diazaspiro[4.5]decane], < 100 nM.
The result for `COc1ncc(C)cc1S(=O)(=O)N1CCOC2(CCN(C3CCOCC3)C2)C1` (stereo not drawn) [Example 16, 9-((2-Methoxy-5-methylpyridin-3-yl)sulfonyl)-2-(tetrahydro-2H-pyran-4-yl)-6-oxa-2,9-diazaspiro[4.5]decane] reads 250 to 4000 nM; that for `O=S(=O)(c1ccc(OC(F)F)cc1)N1CCOC2(CCN(CC3COC3)C2)C1` (stereo not drawn) [Example 17, 9-((4-(Difluoromethoxy)phenyl)sulfonyl)-2-(oxetan-3-ylmethyl)-6-oxa-2,9-diazaspiro[4.5]decane], 250 to 4000 nM.
Then `O=S(=O)(c1ccc(OC(F)F)cc1)N1CCOC2(CCN(CC3CCOCC3)C2)C1` (stereo not drawn) [Example 18, 9-((4-(Difluoromethoxy)phenyl)sulfonyl)-2-((tetrahydro-2H-pyran-4-yl)methyl)-6-oxa-2,9-diazaspiro[4.5]decane], with 250 to 4000 nM; and `O=S(=O)(c1ccc(OC(F)F)cc1)N1CCOC2(CCN(CC3CCOCC3)CC2)C1` [Example 19, 4-((4-(Difluoromethoxy)phenyl)sulfonyl)-9-((tetrahydro-2H-pyran-4-yl)methyl)-1-oxa-4,9-diazaspiro[5.5]undecane], with 250 to 4000 nM; and `CC1(CN2CCC3(CC2)CN(S(=O)(=O)c2ccc(OC(F)F)cc2)CCO3)COC1` [Example 20, 4-((4-(Difluoromethoxy)phenyl)sulfonyl)-9-((3-methyloxetan-3-yl)methyl)-1-oxa-4,9-diazaspiro[5.5]undecane], with 100 to 250 nM.
`CC1(C)CC(N2CCC3(CC2)CN(S(=O)(=O)c2ccc(OC(F)F)cc2)CCO3)CCO1` (stereo not drawn) [Example 21, 4-((4-(Difluoromethoxy)phenyl)sulfonyl)-9-(2,2-dimethyltetrahydro-2H-pyran-4-yl)-1-oxa-4,9-diazaspiro[5.5]undecane]: the IC50 fell in the range of 250 to 4000 nM.
The result for `O=S(=O)(c1cnc(C2CC2)s1)N1CCOC2(CN(C3CCOCC3)C2)C1` [Example 22, 8-((2-Cyclopropylthiazol-5-yl)sulfonyl)-2-(tetrahydro-2H-pyran-4-yl)-5-oxa-2,8-diazaspiro[3.5]nonane] reads 250 to 4000 nM; that for `O=S(=O)(c1cnc(C2CC2)s1)N1CCOC2(CCN(C3CCOCC3)C2)C1` (stereo not drawn) [Example 23, 9-((2-Cyclopropylthiazol-5-yl)sulfonyl)-2-(tetrahydro-2H-pyran-4-yl)-6-oxa-2,9-diazaspiro[4.5]decane], 100 to 250 nM; that for `O=S(=O)(c1cnc(C2CC2)s1)N1CCOC2(CCN(C3CC4(COC4)C3)C2)C1` (stereo not drawn) [Example 24, 9-((2-Cyclopropylthiazol-5-yl)sulfonyl)-2-(2-oxaspiro[3.3]heptan-6-yl)-6-oxa-2,9-diazaspiro[4.5]decane], 100 to 250 nM.
Then `O=S(=O)(c1cc(F)cc(F)c1)N1CCOC2(CCN(C3CC4(COC4)C3)C2)C1` (stereo not drawn) [Example 28, 9-((3,5-Difluorophenyl)sulfonyl)-2-(2-oxaspiro[3.3]heptan-6-yl)-6-oxa-2,9-diazaspiro[4.5]decane], with 100 to 250 nM; and `CC1(CN2CCC3(CC2)CN(S(=O)(=O)c2cc(F)cc(F)c2)CCO3)COC1` [Example 29, 4-((3,5-Difluorophenyl)sulfonyl)-9-((3-methyloxetan-3-yl)methyl)-1-oxa-4,9-diazaspiro[5.5]undecane], with 100 to 250 nM.
The result for `O=S(=O)(c1ccc(OC(F)F)cc1)N1CCC2(CC1)CN(C1CCOCC1)CCO2` [Example 30, 9-((4-(Difluoromethoxy)phenyl)sulfonyl)-4-(tetrahydro-2H-pyran-4-yl)-1-oxa-4,9-diazaspiro[5.5]undecane] reads 100 to 250 nM; that for `Cc1ccc(S(=O)(=O)N2CCC3(CC2)CN(C2CCOCC2)C3)c(C)c1` [Example 31, 7-((2,4-Dimethylphenyl)sulfonyl)-2-(tetrahydro-2H-pyran-4-yl)-2,7-diazaspiro[3.5]nonane], 250 to 4000 nM; that for `O=S(=O)(c1ccc(OC(F)F)cc1)N1CCC2(CC1)CN(C1CCOCC1)C2` [Example 32, 7-((4-(Difluoromethoxy)phenyl)sulfonyl)-2-(tetrahydro-2H-pyran-4-yl)-2,7-diazaspiro[3.5]nonane], 250 to 4000 nM.
`Cc1nc(C(F)(F)F)ccc1S(=O)(=O)N1CCC2(CC1)CN(C1CCOCC1)C2` [Example 33, 7-((2-Methyl-6-(trifluoromethyl)pyridin-3-yl)sulfonyl)-2-(tetrahydro-2H-pyran-4-yl)-2,7-diazaspiro[3.5]nonane]: the IC50 was < 100 nM.
With `Cc1ccc(S(=O)(=O)N2CCC3(CC2)CN(CC2(O)CCOCC2)C3)c(C)c1` [Example 34, 4-((7-((2,4-Dimethylphenyl)sulfonyl)-2,7-diazaspiro[3.5]nonan-2-yl)methyl)tetrahydro-2H-pyran-4-ol], the IC50 is < 100 nM.
Turning to `Cc1ccc(S(=O)(=O)N2CCC3(CC2)CN(CC2CCOCC2)C3)c(C)c1` [Example 35, 7-((2,4-Dimethylphenyl)sulfonyl)-2-((tetrahydro-2H-pyran-4-yl)methyl)-2,7-diazaspiro[3.5]nonane], the IC50 is < 100 nM.
The result for `Cc1ccc(S(=O)(=O)N2CCC3(CCN(C4CCOCC4)C3)CC2)c(Cl)c1` [Example 36, 8-((2-Chloro-4-methylphenyl)sulfonyl)-2-(tetrahydro-2H-pyran-4-yl)-2,8-diazaspiro[4.5]decane] reads < 100 nM; that for `Cc1cc(S(=O)(=O)N2CCC3(CCN(C4CCOCC4)C3)CC2)n(C)n1` [Example 37], 100 to 250 nM; that for `Cc1cc(C(F)(F)F)ncc1S(=O)(=O)N1CCC2(CCN(C3CCOCC3)C2)CC1` [Example 38], < 100 nM.
Then `O=S(=O)(c1ccc(OC(F)F)cc1)N1CCC2(CCN(C3CCOCC3)C2)CC1` [Example 39], with < 100 nM.

(Values after patent US20250171463A1 (BIOGEN MA INC., priority 2022, published 2025).)
